In patent US5635401A, “Method to detect hormone treatment in animals” (Cornell Research Foundation, Inc., priority 1995, dated 1997):

B1: bST: recombinant bovine somatotropin, growth hormone approved for use in dairy cows (protein, UniProt P01246 27-217, looked up)
Somatotropin: AFPAMSLSGLFANAVLRAQHLHQLAADTFKEFERTYIPEGQRYSIQNTQVAFCFSETIPAPTGKNEAQQKSDLELLRISLLLIQSWLGPLQFLSRVFTNSLVFGTSDRVYEKLKDLEEGILALMRELEDGTPRAGQILKQTYDKFDTNMRSDDALLKNYGLLSCFRKDLHKTETYLRVMKCRRFGEASCAF
B2: MDGI/FABP: mammary derived growth inhibitor / fatty acid binding protein, a 15 kDa protein of the milk fat globule membrane (protein, UniProt P10790 2-133, looked up)
Fatty acid-binding protein, …: VDAFVGTWKLVDSKNFDDYMKSLGVGFATRQVGNMTKPTTIIEVNGDTVIIKTQSTFKNTEISFKLGVEFDETTADDRKVKSIVTLDGGKLVHVQKWNGQETSLVREMVDGKLILTLTHGTAVCTRTYEKQA

Legend:
[1] = system: protein kinase activity of the resident proteins present in the MFGM; test: Auto-phosphorylation of MFGM proteins with γ 32P-ATP, detected by SDS-PAGE and autoradiography; assay type: biochemical, bovine; conditions: for effect on the phosphorylation pattern: valinomycin with or without KCl, ionophore A23187 + CaCl2
Description: MFGM and skim milk membranes (SMM) were incubated with γ ^32 P-ATP in the presence of protein phosphatase inhibitors (vanadate, 8-glycerophosphate, phosphotyrosine, phosphoserine, phosphothreonine, p-nitrophenyl phosphate) and 5 mM MgCl, and/or 3 mM MnCl, led to phosphorylation of proteins, as detected by SDS-PAGE and autoradiography. In the bovine MFGM, […] main radiolabelled protein bands were detected and ranged from 13-200 kDa (13, 15, 21, 24, 32, 35, 39, 45, 51, 66, 75, 100, 130, 200). In the human MFGM, 8 bands were indentified and ranged between 20-150 kDa five main bands corresponding to 51, 65, 66, 100, and 130, and three weaker bands corresponding to 21, 24 and 27 kDa. Phosphorylation of bovine skim milk membrane (SMM) proteins was observed only after the addition of 0.1% Triton X-100 to membranes. In this case, the three-four main radioactive bands were detected in a zone between 32 and 35 kDa, and one band in the 75 kDa range.
The presence of phosphatase inhibitors in the kinase media was necessary to see maximal levels of protein phosphorylation. The phosphorylation reaction would not take place when Mg^2+ and Mn^2+ were substituted for Ca^2+. Genistein, an inhibitor of protein tyrosine kinase activity caused approximately 50% inhibition of phosphorylation.
It is believed that the observed phosphorylation was a result of Mg^2+ or Mn^2+ --dependent protein kinase activity of the resident proteins present in the MFGM.

[2] = system: fatty acid binding protein (FABP/MDGI); test: FABP phosphorylation in MFGM of milk from cows treated with bST (15 kDa band intensity on electrophoresis gel, FIG. 1); assay type: in vivo, cow; conditions: for phosphorylated 15 kDa protein (FABP) relative to non-bST treated control cow: FIG. 1
Description: The test for determining whether an animal has been treated with bST is performed by: 1) isolating the milk fat globule membranes (MFGM); 2) phosphorylating the MFGM; 3) and detecting the levels of phosphorylation of FABP in MFGM.
Milk fat globule membranes (MFGM) are prepared from the cream of fresh bovine milk. Between 100-200 ml fresh bovine milk from cows administered bST are collected. The cream is obtained by centrifugation of milk at 3,000×g for 20 min. It is then suspended in two volumes of 10 mM phosphate buffer, pH 7.4, containing 0.9% NaCl (PBS), and homogenized in a Warring blender for 45 sec. The homogenate is centrifuged at 100,000×g for 90 min. The MFGM pellet is washed once by resuspension in an initial volume of PBS, followed by centrifugation at 100,000×gfor 90 min. No cells (somatic cells) are found in the MFGM, as determined by light microscopy. MFGM may be either used immediately or stored at -80' C. for future use.
FABP/MDGI is involved in the binding and transport of milk fatty acids.
FIG. 1 is a bar graph showing intensity of a band on an electrophoresis gel showing FABP phosphorylation at the 15 kDalton level. The non-bST treated cow was used as a control. A sample from a milk bulk tank containing milk from cows treated with bST has only about a quarter of the phosphorylated 15 kDa protein.

[3] = system: bovine mammary and human breast cancer cells; conditions: including bovine mammary and human breast cancer cells; cited from earlier work

Molecule	effect on the phosphorylation pattern [1]	also measured
N#CC(C#N)=NNc1cccc(Cl)c1 [CCCP, carbonyl-cyanide-m-chlorophenyl hydrazone]	did not significantly alter	
C(=NC1CCCCC1)=NC1CCCCC1 [DCCD, dicyclohexylcarbodimide]	did not significantly alter	
O=c1c(-c2ccc(O)cc2)coc2cc(O)cc(O)c12 [Genistein]		inhibition of phosphorylation ([1]; kinase media with phosphatase inhibitors): approximately 50%
CC1OC(OC2CC(O)C3(CO)C4C(O)CC5(C)C(C6=CC(=O)OC6)CCC5(O)C4CCC3(O)C2)C(O)C(O)C1O (stereo not drawn) [Oubain]	did not significantly alter	
C=C1[C@@H]2CC[C@H]3[C@]4(C)C[C@H](O[C@@H]5O[C@H](CO)[C@@H](OS(=O)(=O)O)[C@H](OS(=O)(=O)O)[C@H]5OC(=O)CC(C)C)C[C@@H](C(=O)O)[C@H]4CC[C@]3(C2)[C@H]1O [atractyloside]	did not significantly alter	
CNc1ccc2oc(C[C@H]3O[C@@]4(CC[C@H]3C)O[C@H]([C@H](C)C(=O)c3ccc[nH]3)[C@H](C)C[C@H]4C)nc2c1C(=O)O [ionophore A23187]	did not significantly alter	
CC(C)[C@@H]1NC(=O)[C@H](C)OC(=O)[C@@H](C(C)C)NC(=O)[C@@H](C(C)C)OC(=O)[C@H](C(C)C)NC(=O)[C@H](C)OC(=O)[C@@H](C(C)C)NC(=O)[C@@H](C(C)C)OC(=O)[C@H](C(C)C)NC(=O)[C@H](C)OC(=O)[C@@H](C(C)C)NC(=O)[C@@H](C(C)C)OC1=O [valinomycin]	did not significantly alter	
B1		levels of phosphorylated MDGI/FABP ([2]; MFGM isolated from cows treated with bST vs non treated cows): significantly reduced; FABP autophosphorylation activity ([2]; cows treated with bST vs non treated cows): weaker; phosphorylated 15 kDa protein (FABP) relative to non-bST treated control cow ([2]; individual cows treated with bST): significant decrease; phosphorylated 15 kDa protein (FABP) relative to non-bST treated control cow ([2]; milk bulk tank sample containing milk from cows treated with bST): about a quarter
B2		growth of various cell types [3]: inhibits the growth
